US11186592B2, “Thiazolopyridine derivatives as adenosine receptor antagonists” (MERCK PATENT GMBH, priority 2017, dated 2021)

Tests used:
Assay type in all cases: cell-based
human A2A receptor = molecular target: T1, human A2A receptor (Homo sapiens, UniProt P29274); assay: cAMP (HTRF) functional assay, recombinant HEK293 cells expressing human A2A receptor, agonist NECA
T1 construct: expressed in transfected cells; host or cells: HEK293
Method: (§1) The functional activities of human A2A, A2B, A1 and A3 receptors were determined by quantification of cAMP, being the second messenger for adenosine receptors.
(§2) Cells were seeded into 384-well plates, forskolin, test compounds and agonists (CPA for A1- and IB-MECA for A3-receptor) were added. After 30 min incubation, HTRF reagents (cAMP dynamic 2, Cis Bio) were added and the cellular cAMP levels were determined using the ENVISION (Perkin Elmer) plate reader. Obtained raw data were normalized against the inhibitor control and the neural control (DMSO) and the normalized data were fitted using GeneData software.

human A2B receptor = molecular target: T2, human A2B receptor (Homo sapiens, UniProt P29275); assay: cAMP (HTRF) functional assay, recombinant HEK293 cells expressing human A2B receptor, agonist NECA
T2 construct: expressed in transfected cells; host or cells: HEK293
T2 sequence (P29275 1-332): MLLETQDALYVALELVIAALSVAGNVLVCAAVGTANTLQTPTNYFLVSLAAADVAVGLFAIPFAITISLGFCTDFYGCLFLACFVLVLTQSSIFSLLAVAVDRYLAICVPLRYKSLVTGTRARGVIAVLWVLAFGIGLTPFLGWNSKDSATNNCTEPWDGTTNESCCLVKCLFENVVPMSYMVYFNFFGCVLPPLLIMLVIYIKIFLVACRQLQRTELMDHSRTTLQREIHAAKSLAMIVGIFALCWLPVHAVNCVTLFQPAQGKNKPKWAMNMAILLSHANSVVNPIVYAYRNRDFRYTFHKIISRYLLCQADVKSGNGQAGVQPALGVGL
Method: as §1, §2

human A1 receptor = molecular target: T3, human A1 receptor (Homo sapiens, UniProt P30542); assay: cAMP (HTRF) functional assay, recombinant CHO cells expressing human A1 receptor, forskolin + agonist CPA
T3 construct: expressed in transfected cells; host or cells: CHO
T3 sequence (P30542 1-326): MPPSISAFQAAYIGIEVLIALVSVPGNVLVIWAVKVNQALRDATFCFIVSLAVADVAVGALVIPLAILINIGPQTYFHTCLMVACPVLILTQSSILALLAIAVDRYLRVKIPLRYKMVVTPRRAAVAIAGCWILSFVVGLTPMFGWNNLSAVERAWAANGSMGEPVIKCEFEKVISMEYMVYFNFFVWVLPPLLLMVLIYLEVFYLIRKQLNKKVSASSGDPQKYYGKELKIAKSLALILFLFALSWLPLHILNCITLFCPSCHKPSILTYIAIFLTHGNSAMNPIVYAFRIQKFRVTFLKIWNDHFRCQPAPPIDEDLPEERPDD
Method: as §1
(§3) For human A1 and A3 receptors, recombinant CHO cells, expressing either A1 or A3-receptor, were used. As both receptors couple to Gi proteins, the assay protocol was adapted:
as §2

human A3 receptor = molecular target: T4, human A3 receptor (Homo sapiens, UniProt P0DMS8); assay: cAMP (HTRF) functional assay, recombinant CHO cells expressing human A3 receptor, forskolin + agonist IB-MECA
T4 construct: expressed in transfected cells; host or cells: CHO
T4 sequence (P0DMS8 1-318): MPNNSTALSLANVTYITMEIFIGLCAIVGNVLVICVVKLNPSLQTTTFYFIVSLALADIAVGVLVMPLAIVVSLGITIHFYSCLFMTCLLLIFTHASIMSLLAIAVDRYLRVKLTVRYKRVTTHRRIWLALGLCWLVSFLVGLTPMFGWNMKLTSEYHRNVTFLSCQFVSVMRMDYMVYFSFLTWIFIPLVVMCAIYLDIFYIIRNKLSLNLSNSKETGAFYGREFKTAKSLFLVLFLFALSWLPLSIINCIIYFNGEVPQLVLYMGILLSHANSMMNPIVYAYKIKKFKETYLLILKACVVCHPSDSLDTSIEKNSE
Method: as §1, §3, §2

T1 sequence (P29274 whole entry): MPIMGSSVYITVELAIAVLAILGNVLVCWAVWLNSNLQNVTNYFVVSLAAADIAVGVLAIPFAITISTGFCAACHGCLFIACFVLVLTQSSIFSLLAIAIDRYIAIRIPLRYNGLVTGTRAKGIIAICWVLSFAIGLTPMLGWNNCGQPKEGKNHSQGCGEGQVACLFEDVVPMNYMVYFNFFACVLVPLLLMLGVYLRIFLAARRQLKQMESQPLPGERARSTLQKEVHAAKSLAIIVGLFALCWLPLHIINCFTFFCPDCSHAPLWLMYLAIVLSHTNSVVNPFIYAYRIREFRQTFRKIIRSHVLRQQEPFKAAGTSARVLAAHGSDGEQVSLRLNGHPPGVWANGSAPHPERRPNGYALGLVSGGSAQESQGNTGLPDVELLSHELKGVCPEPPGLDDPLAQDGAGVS

| SMILES | IC50 (human A2A receptor) | IC50 (human A2B receptor) | IC50 (human A1 receptor) | IC50 (human A3 receptor) |
| --- | --- | --- | --- | --- |
| COc1ncc(-c2ccccc2)c2sc(NC(=O)[C@H]3C[C@@H]3OC)nc12 (racemic) [compound 202, (1S,2S)-2-methoxy-N-{4-methoxy-7-phenyl-[1,3]thiazolo[4,5-c]pyridin-2-yl}cyclopropane-1-carboxamide] | < 100 nM | < 100 nM | < 1000 nM | < 1000 nM |
| COCc1ccc(C(=O)Nc2nc3c(OC)ncc(N4CCOCC4)c3s2)cc1 [compound 3, 4-Methoxymethyl-N-(4-methoxy-7-morpholin-4-yl-thiazolo[4,5-c]pyridin-2-yl)-benzamide] | < 10 nM | < 1000 nM | > 1000 nM | < 1000 nM |
| COc1ncc(N2CCOCC2)c2sc(NC(=O)N3CCC(O)(Cc4ccccc4)CC3)nc12 [compound 7, 4-benzyl-4-hydroxy-N-[4-methoxy-7-(morpholin-4-yl)-[1,3]thiazolo[4,5-c]pyridin-2-yl]piperidine-1-carboxamide] | < 100 nM | < 100 nM | < 1000 nM | > 1000 nM |
| COc1ncc(N2CCOCC2)c2sc(NC(=O)N3CCC4(CCOC4)C3)nc12 (stereo not shown) [compound 9, 2-Oxa-7-aza-spiro[4.4]nonane-7-carboxylic acid (4-methoxy-7-morpholin-4-yl-thiazolo[4,5-c]pyridin-2-yl)-amide] | < 10 nM | < 1000 nM | > 1000 nM | > 1000 nM |
| COCc1ccc(C(=O)Nc2nc3c(OC)ncc(-c4cnn(C)c4)c3s2)cc1 [compound 14] | < 10 nM | < 1000 nM | < 1000 nM | < 1000 nM |
| COc1ncc(N2CCOCC2)c2sc(NC(=O)c3ccc(C(=O)N(C)C)cc3)nc12 [compound 15, N-(4-Methoxy-7-morpholin-4-yl-thiazolo[4,5-c]pyridin-2-yl)-N′,N′-dimethyl-terephthalamide] | < 10 nM | < 100 nM | > 1000 nM | > 1000 nM |
| COc1ncc(N2CCOCC2)c2sc(NC(=O)N3CC[C@]4(CCOC4)C3)nc12 [compound 17, (5S)-N-[4-methoxy-7-(morpholin-4-yl)-[1,3]thiazolo[4,5-c]pyridin-2-yl]-2-oxa-7-azaspiro[4.4]nonane-7-carboxamide] | < 10 nM | < 1000 nM | > 1000 nM | > 1000 nM |
| COc1ncc(-c2cnn(C)c2)c2sc(NC(=O)c3cnc(C)s3)nc12 [compound 131, 2-Methyl-thiazole-5-carboxylic acid [4-methoxy-7-(1-methyl-1H-pyrazol-4-yl)-thiazolo[4,5-c]pyridin-2-yl]-amide] | < 10 nM | < 100 nM | – | > 1000 nM |
| COc1nc(F)c(N2CCOCC2)c2sc(NC(=O)c3cnn(C)c3)nc12 [compound 165, 1-Methyl-1H-pyrazole-4-carboxylic acid (6-fluoro-4-methoxy-7-morpholin-4-yl-thiazolo[4,5-c]pyridin-2-yl)-amide] | < 10 nM | < 10 nM | – | < 1000 nM |
| COc1nc(Br)c(N2CCOCC2)c2sc(NC(=O)c3cnn(C)c3)nc12 [compound 178, 1-Methyl-1H-pyrazole-4-carboxylic acid (6-bromo-4-methoxy-7-morpholin-4-yl-thiazolo[4,5-c]pyridin-2-yl)-amide] | < 10 nM | < 100 nM | – | < 1000 nM |
| COc1ncc(-c2ccccc2)c2sc(NC(=O)c3cnn(C)c3)nc12 [compound 188, 1-Methyl-1H-pyrazole-4-carboxylic acid (4-methoxy-7-phenyl-thiazolo[4,5-c]pyridin-2-yl)-amide] | < 10 nM | < 10 nM | – | < 1000 nM |
| COc1nc(C#N)c(N2CCOCC2)c2sc(NC(=O)c3cnn(C)c3)nc12 [compound 217, 1-Methyl-1H-pyrazole-4-carboxylic acid (6-cyano-4-methoxy-7-morpholin-4-yl-thiazolo[4,5-c]pyridin-2-yl)-amide] | < 10 nM | < 100 nM | – | < 1000 nM |
| COc1ncc(-c2cccnc2)c2sc(NC(=O)c3ccc(C(=O)N(C)C)cc3)nc12 [compound 218, N-(4-Methoxy-7-pyridin-3-yl-thiazolo[4,5-c]pyridin-2-yl)-N′,N′-dimethyl-terephthalamide] | < 10 nM | < 100 nM | – | > 1000 nM |
| COc1nc(Cl)c(N2CCOCC2)c2sc(NC(=O)c3cnn(C)c3)nc12 [compound 221, 1-Methyl-1H-pyrazole-4-carboxylic acid (6-chloro-4-methoxy-7-morpholin-4-yl-thiazolo[4,5-c]pyridin-2-yl)-amide] | < 10 nM | < 100 nM | – | < 1000 nM |
| COc1nc(C)c(-c2ccccc2)c2sc(NC(=O)N3CCC4(CCOCC4)C3)nc12 [compound 223, 8-Oxa-2-aza-spiro[4.5]decane-2-carboxylic acid (4-methoxy-6-methyl-7-phenyl-thiazolo[4,5-c]pyridin-2-yl)-amide] | < 10 nM | < 100 nM | – | > 1000 nM |
| COCCOc1cccc(-c2cnc(OC)c3nc(NC(=O)c4ccc(C(=O)N(C)C)cc4)sc23)c1 [compound 224, N-{4-Methoxy-7-[3-(2-methoxy-ethoxy)-phenyl]-thiazolo[4,5-c]pyridin-2-yl}-N′,N′-dimethyl-terephthalamide] | < 10 nM | < 100 nM | – | < 1000 nM |
| COCCOc1cccc(-c2cnc(OC)c3nc(NC(=O)N4CCC5(CCOCC5)C4)sc23)c1 [compound 225, 8-Oxa-2-aza-spiro[4.5]decane-2-carboxylic acid (4-methoxy-7-[3-(2-methoxy-ethoxy)-phenyl]-thiazolo[4,5-c]pyridin-2-yl}-amide] | < 10 nM | < 100 nM | – | > 1000 nM |
| COc1nc(F)c(N2CCOCC2)c2sc(NC(=O)c3ccc(N4C(=O)CCC4=O)cc3)nc12 [compound 226, 4-(2,5-Dioxo-pyrrolidin-1-yl)-N-(6-fluoro-4-methoxy-7-morpholin-4-yl-thiazolo[4,5-c]pyridin-2-yl)-benzamide] | < 10 nM | < 10 nM | – | > 1000 nM |
| COc1ncc(-c2ccccc2)c2sc(NC(=O)c3ccc(C(=O)N(C)CCO)cc3)nc12 [compound 227, N-(2-Hydroxy-ethyl)-N′-(4-methoxy-7-phenyl-thiazolo[4,5-c]pyridin-2-yl)-N-methyl-terephthalamide] | < 10 nM | < 10 nM | – | > 1000 nM |
| COc1ncc(-c2ccccc2)c2sc(NC(=O)c3ccc(C(=O)NCCO)cc3)nc12 [compound 228, N-(2-Hydroxy-ethyl)-N′-(4-methoxy-7-phenyl-thiazolo[4,5-c]pyridin-2-yl)-terephthalamide] | < 10 nM | < 100 nM | – | < 1000 nM |
| COc1ncc(-c2ccccc2)c2sc(NC(=O)c3ccc(C(=O)NCCN(C)C)cc3)nc12 [compound 230, N-(2-Dimethylamino-ethyl)-N′-(4-methoxy-7-phenyl-thiazolo[4,5-c]pyridin-2-yl)-terephthalamide] | < 10 nM | < 100 nM | – | < 1000 nM |
| COc1ncc(C2=CCOCC2)c2sc(NC(=O)N3CCC4(CCOCC4)C3)nc12 [compound 237, 8-Oxa-2-aza-spiro[4.5]decane-2-carboxylic acid [7-(3,6-dihydro-2H-pyran-4-yl)-4-methoxy-thiazolo[4,5-c]pyridin-2-yl]-amide] | < 10 nM | < 10 nM | < 1000 nM | – |
